These results are taken from ChEMBL document CHEMBL1201862, “PubChem BioAssay data set” (2004).

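Tested at 5 concentrations; 48 h exposure; 96-well plates; endpoints linearly interpolated, else capped at highest concentration. GI50 marks 50% less growth.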 Activity calls are given as the source filed them. Rule as the data show it: active = GI50 up to about 1.1 µM and inactive = higher.

Some test systems named below: SW-620; SK-MEL-28; EKVX; OVCAR-5; OVCAR-4; SF-295; MDA-N; OVCAR-3; Malme-3M; IGROV-1; U-251; SN12C; UO-31; HCT-15; NCI-H23; CAKI-1; KM12; NCI-H226; T47D; HCC 2998.
Holding throughout (test): NCI tumour cell line growth inhibition, 48 h

As for `CC1(CCC(=O)OC2CCCCC2)OCCO1`, the GI50 with SW-620, in the experiment with SK-MEL-28, with EKVX, with OVCAR-5, in the experiment on OVCAR-4 and in the experiment with SF-295 was > 100 µM (inactive) in each case. For the same compound, the GI50 in the experiment on MDA-N, in the experiment on OVCAR-3, in the experiment on Malme-3M, in the experiment with IGROV-1, in the experiment with U-251 and with SN12C was > 100 µM (inactive) each time. Also, the GI50 in the experiment on UO-31 is > 100 µM (inactive); in the experiment with HCT-15, greater than 100 µM; with NCI-H23, > 100 µM (inactive); in the experiment on CAKI-1, > 100 µM (inactive); in the experiment on KM12 it was > 100 µM (inactive); in the experiment with NCI-H226, > 100 µM (inactive). Besides, in the experiment with T47D, the GI50 is > 100 µM (inactive).

Regarding `Oc1ccc(C[C@@H]2CN[C@H](Cc3ccc(O)c(Br)c3)CN2)cc1`, the GI50 in the experiment on SW-620, with SK-MEL-28, in the experiment on EKVX, in the experiment on OVCAR-5, in the experiment on OVCAR-4 and in the experiment on SF-295 was > 100 µM (inactive) throughout. Also, the GI50 in the experiment with HCC 2998, with OVCAR-3, with IGROV-1, in the experiment with U-251, with SN12C and in the experiment with UO-31 was > 100 µM (inactive) in each case. Further, the GI50 in the experiment with HCT-15 was greater than 100 µM; in the experiment on NCI-H23, > 100 µM (inactive); in the experiment on CAKI-1, > 100 µM (inactive); in the experiment with KM12, > 100 µM (inactive); in the experiment on NCI-H226, > 100 µM (inactive); in the experiment on T47D it was > 100 µM (inactive).

On to `COC(=O)C1CC(C=O)=C(SC)N1` (configuration not stated), for which the GI50 in the experiment on SW-620, with SK-MEL-28, in the experiment with EKVX, in the experiment with OVCAR-5, with OVCAR-4 and in the experiment on SF-295 was > 50 µM (inactive) throughout. The GI50 in the experiment with HCC 2998, with MDA-N, in the experiment with OVCAR-3, with Malme-3M, in the experiment with IGROV-1 and in the experiment on U-251 was > 50 µM (inactive) each time. Moreover, the GI50 in the experiment with UO-31 was > 50 µM (inactive); with HCT-15, greater than 50 µM; in the experiment on NCI-H23, > 50 µM (inactive); in the experiment on CAKI-1, > 50 µM (inactive); in the experiment with KM12, > 50 µM (inactive).

Turning to `CN1C(=O)C(C(N)=O)C2CC1(C)Oc1ccccc12` (configuration not stated), the GI50 in the experiment on SW-620, in the experiment on SK-MEL-28, in the experiment on EKVX, in the experiment on OVCAR-5, with OVCAR-4 and in the experiment on HCC 2998 was > 100 µM (inactive) each time. Further, the GI50 is > 100 µM (inactive) in the experiment with OVCAR-3; > 100 µM (inactive) with Malme-3M; > 100 µM (inactive) with IGROV-1; > 100 µM (inactive) in the experiment on U-251; > 100 µM (inactive) in the experiment on SN12C; greater than 100 µM in the experiment with HCT-15. The GI50 in the experiment on NCI-H23, in the experiment with CAKI-1, in the experiment with KM12, in the experiment on NCI-H226 and in the experiment with T47D was > 100 µM (inactive) throughout.

Turning to `CCc1nn(S(=O)(=O)c2ccc(C)cc2)c2c1CS(=O)(=O)CC2`, the GI50 in the experiment with SW-620 was > 100 µM (inactive); with SK-MEL-28 it was > 100 µM (inactive); with EKVX, 89.7 µM (inactive); in the experiment on OVCAR-5, > 100 µM (inactive); in the experiment with OVCAR-4, > 100 µM (inactive); in the experiment with SF-295, 66.8 µM (inactive). Moreover, the GI50 was > 100 µM (inactive) with MDA-N; > 100 µM (inactive) in the experiment with OVCAR-3; > 100 µM (inactive) in the experiment on U-251; > 100 µM (inactive) in the experiment on SN12C; > 100 µM (inactive) in the experiment with UO-31; greater than 100 µM with HCT-15. Also, the GI50 with NCI-H23, in the experiment on CAKI-1, in the experiment on KM12 and in the experiment with T47D was > 100 µM (inactive) throughout.

In the case of `CSc1nc(NC(C)C)c2c(n1)Sc1nc3ccccc3n1N=C2`, the GI50 with SW-620 was 13.1 µM (inactive); in the experiment with SK-MEL-28, > 100 µM (inactive); with EKVX, 21.1 µM (inactive); with OVCAR-5, 31.3 µM (inactive); in the experiment on OVCAR-4, 3.85 µM (inactive); in the experiment on SF-295, 6.03 µM (inactive). The GI50 with HCC 2998 is 3.65 µM (inactive); in the experiment with MDA-N, 27 µM (inactive); with OVCAR-3, 10.4 µM (inactive); with Malme-3M, 9.18 µM (inactive); in the experiment on IGROV-1 it was 16.9 µM (inactive); with U-251, 11.5 µM (inactive). The GI50 with SN12C was 10.7 µM (inactive); in the experiment on UO-31, 5.32 µM (inactive); with HCT-15 it was 36.8 µM; in the experiment on NCI-H23 it was 11.7 µM (inactive); in the experiment on CAKI-1, 28.7 µM (inactive); with KM12, 16.5 µM (inactive). In the experiment on NCI-H226, the GI50 was 0.57 µM (active).

In the case of `COc1cc(NS(C)(=O)=O)ccc1N1Cc2c[nH]c3ccc4nccc1c4c23`, the GI50 with SW-620 was 32.1 µM (inactive); in the experiment with SK-MEL-28, 36 µM (inactive); in the experiment with EKVX it was > 100 µM (inactive); in the experiment on OVCAR-5, 30 µM (inactive); in the experiment on OVCAR-4, 61.2 µM (inactive); with SF-295, 41.5 µM (inactive). The GI50 in the experiment with MDA-N is 28.7 µM (inactive); with OVCAR-3, 33.7 µM (inactive); in the experiment with IGROV-1, 36.3 µM (inactive); with U-251, 36.5 µM (inactive); in the experiment on SN12C, 20.2 µM (inactive); in the experiment with UO-31, > 100 µM (inactive). Further, the GI50 with HCT-15 was greater than 100 µM; in the experiment on NCI-H23, 39.1 µM (inactive); in the experiment with CAKI-1, > 100 µM (inactive); in the experiment with KM12 it was 34.4 µM (inactive); in the experiment on NCI-H226, 29 µM (inactive); with T47D it was 25.5 µM (inactive).

Consider `CC(C)Oc1ccc(CNC2=NCCO2)c2ccccc12`, for which the GI50 in the experiment on SW-620 is 15.3 µM (inactive); with SK-MEL-28, 14.5 µM (inactive); in the experiment with EKVX, 15.1 µM (inactive); in the experiment with OVCAR-5, 11.6 µM (inactive); in the experiment on OVCAR-4, 13.9 µM (inactive); with SF-295, 13.7 µM (inactive). In addition, the GI50 in the experiment on HCC 2998 was 10.9 µM (inactive); in the experiment with Malme-3M, 14.1 µM (inactive); in the experiment with IGROV-1, 12.6 µM (inactive); in the experiment on U-251, 13.6 µM (inactive); with SN12C, 17.3 µM (inactive); with UO-31, 5.24 µM (inactive). Besides, the GI50 with HCT-15 was 15.6 µM; with NCI-H23 it was 14.6 µM (inactive); in the experiment on KM12, 18.1 µM (inactive); in the experiment with NCI-H226, 15.7 µM (inactive); in the experiment with T47D it was 11.9 µM (inactive).

Consider `CC1=C(Cl)C[C@@H](/C(C)=C\Cl)O[C@@]1(O)C(Br)Br`, for which the GI50 is 37.3 µM (inactive) with SW-620; 59.8 µM (inactive) with SK-MEL-28; 26.5 µM (inactive) in the experiment on EKVX; 19.2 µM (inactive) with OVCAR-5; 43 µM (inactive) with OVCAR-4; > 100 µM (inactive) in the experiment on SF-295. Also, the GI50 was 33.3 µM (inactive) in the experiment on HCC 2998; 19.2 µM (inactive) in the experiment on MDA-N; 17.5 µM (inactive) in the experiment on OVCAR-3; 24.5 µM (inactive) in the experiment with Malme-3M; 34.3 µM (inactive) in the experiment on IGROV-1; 32.8 µM (inactive) in the experiment on U-251. The GI50 in the experiment on SN12C was 19.5 µM (inactive); in the experiment with UO-31, 25.3 µM (inactive); in the experiment with HCT-15, 16.8 µM; in the experiment with NCI-H23, 41.9 µM (inactive); in the experiment with CAKI-1, 18.5 µM (inactive); in the experiment with KM12 it was 54.1 µM (inactive).

Consider `CCOC(=O)C1=C(C)N(c2ccc(Cl)cc2)C2(O)C=CC(O)=C3C(=O)c4ccccc4C(=O)C312` (configuration not stated), for which the GI50 is 4.08 µM (inactive) with SW-620; 4.36 µM (inactive) in the experiment on EKVX; 12.9 µM (inactive) with OVCAR-5; 3.97 µM (inactive) with OVCAR-4; 6.93 µM (inactive) with SF-295; 4.7 µM (inactive) in the experiment with MDA-N. Besides, the GI50 was 1.91 µM (inactive) in the experiment on OVCAR-3; 0.483 µM (active) in the experiment with Malme-3M; 3.94 µM (inactive) with IGROV-1; 3.59 µM (inactive) in the experiment on U-251; 4.16 µM (inactive) with SN12C; 3.92 µM (inactive) in the experiment on UO-31. In addition, the GI50 in the experiment on HCT-15 is 2.12 µM; in the experiment with NCI-H23 it was 10.1 µM (inactive); in the experiment with CAKI-1, 1.96 µM (inactive); with KM12 it was 6.97 µM (inactive); in the experiment on T47D it was 3.45 µM (inactive).

With `Nc1cccc(CCN2CCN(CCCc3ccccc3)CC2)c1`, the GI50 was 30.5 µM (inactive) in the experiment on SW-620; 27.5 µM (inactive) in the experiment with SK-MEL-28; > 100 µM (inactive) with EKVX; > 100 µM (inactive) with OVCAR-5; 39.9 µM (inactive) with OVCAR-4; 24.8 µM (inactive) in the experiment on SF-295. The GI50 with HCC 2998 is 15 µM (inactive); with OVCAR-3, 19.4 µM (inactive); in the experiment with Malme-3M it was 21 µM (inactive); with IGROV-1 it was 37.3 µM (inactive); in the experiment on U-251, 46.2 µM (inactive); in the experiment on SN12C, 95.3 µM (inactive). For the same compound, the GI50 in the experiment with UO-31 is 26.7 µM (inactive); in the experiment on HCT-15, 18 µM; with NCI-H23 it was 50.2 µM (inactive); in the experiment on CAKI-1, 53.3 µM (inactive); with KM12, 24.9 µM (inactive); in the experiment on NCI-H226 it was 70 µM (inactive). Besides, the GI50 in the experiment with T47D is 20.3 µM (inactive).

As for `O=C(NCCCCNCCCNC(=O)OCc1ccccc1)OCc1ccccc1`, the GI50 in the experiment on SW-620 is 61.7 µM (inactive); in the experiment on SK-MEL-28, 18.4 µM (inactive); in the experiment with EKVX, 51.6 µM (inactive); in the experiment on OVCAR-5 it was 85.1 µM (inactive); in the experiment with OVCAR-4, 80.2 µM (inactive); in the experiment with SF-295, 21.8 µM (inactive). For the same compound, the GI50 with HCC 2998 was 19.5 µM (inactive); with OVCAR-3 it was > 100 µM (inactive); in the experiment on IGROV-1 it was 22.1 µM (inactive); with U-251 it was 34.5 µM (inactive); in the experiment with SN12C, 85.3 µM (inactive); in the experiment on UO-31, 24.2 µM (inactive). Moreover, the GI50 is 61.5 µM in the experiment on HCT-15; > 100 µM (inactive) in the experiment on NCI-H23; 32 µM (inactive) with KM12; 32 µM (inactive) in the experiment on NCI-H226; 18.9 µM (inactive) in the experiment with T47D.
